Measurements: US20230312481A1, “SUBSTITUTED (PHTHALAZIN-1-YLMETHYL)UREAS, SUBSTITUTED N-(PHTHALAZIN-1-YLMETHYL)AMIDES, AND ANALOGUES THEREOF” (priority 2020, published 2023)

What follows are molecules tested on HBV rcDNA in HepDE19 cells (assay: HepDE19 assay with bDNA quantitation of HBV rcDNA). Conditions: HepDE19 cells, 7 day incubation, rcDNA measured by Quantigene 2.0 bDNA assay; top concentration 25 µM; read-out: DE-19bDNA EC50.
Type: cell-based, hepatitis B virus
Procedure: HepDE19 Assay With bDNA Quantitation of HBV rcDNA
HepDE19 (50,000 cells/well) were plated in 96-well collagen-coated tissue-culture treated microtiter plates in DMEM/F12 medium supplemented with 10% fetal bovine serum, 1% penicillin-streptomycin and 1 µg/mL tetracycline and incubated in a humidified incubator at 37° C. and 5% CO2 overnight. Next day, the cells were switched to fresh medium without tetracycline and incubated for 4 hours at 37° C. and 5% CO2. […] The final DMSO concentration in the assay was 0.5%. The plates were incubated for 7 days in a humidified incubator at 37° C. and 5% CO2. Following a 7 day-incubation, the level of rcDNA present in the inhibitor-treated wells was measured using a Quantigene 2.0 bDNA assay kit (Affymetrix, Santa Clara, CA) with HBV specific custom probe set and manufacturers instructions. Concurrently, the effect of compounds on cell viability was assessed using replicate plates, plated at a density of 5,000 cells/well and incubated for 4 days, to determine the ATP content as a measure of cell viability using the cell-titer glo reagent (CTG; Promega Corporation, Madison, WI) as per manufacturer’s instructions.
Representative compounds of the disclosure were tested for their abilities to inhibit formation of relaxed circular DNA (rcDNA) in a HepDE19 assay, as described elsewhere herein.

Going from `CC(C)CN(C(=O)Nc1ccc(F)c(Cl)c1)C(C)c1n[nH]c(=O)c2ccccc12` (single isomer, unassigned) [Compound 6, 3-(3-chloro-4-fluoro-phenyl)-1-isobutyl-1-[1-(4-oxo-3H-phthalazin-1-yl)ethyl]urea] to `CC(c1n[nH]c(=O)c2ccccc12)N(C)C(=O)Nc1ccc(F)c(Cl)c1` (single isomer, unassigned) [Compound 4, 3-(3-chloro-4-fluoro-phenyl)-1-methyl-1-[1-(4-oxo-3H-phthalazin-1-yl)ethyl]urea], the EC50 falls from 1700 nM to 200 nM (8.5-fold). The second is the more potent here.

First: CC(c1n[nH]c(=O)c2cc(F)c(F)cc12)N(C)C(=O)c1cc(F)c(Br)c(F)c1 (single isomer, unassigned) [Compound 100, 4-bromo-N-(1-(6,7-difluoro-4-oxo-3,4-dihydrophthalazin-1-yl)ethyl)-3,5-difluoro-N-methylbenzamide]
Second: CC(c1n[nH]c(=O)c2cc(F)c(F)cc12)N(C)C(=O)c1ccc2scnc2c1 (single isomer, unassigned) [Compound 85, N-(1-(6,7-difluoro-4-oxo-3,4-dihydrophthalazin-1-yl)ethyl)-N-methylbenzo[d]thiazole-5-carboxamide]
The EC50 of the first is 2.1-fold higher: 4690 nM for the first, 2220 nM for the second.

Going from `CC(c1n[nH]c(=O)c2cc(F)c(F)cc12)N(C)C(=O)c1cc2sccc2[nH]1` (single isomer, unassigned) [Compound 81, N-(1-(6,7-difluoro-4-oxo-3,4-dihydrophthalazin-1-yl)ethyl)-N-methyl-4H-thieno[3,2-b]pyrrole-5-carboxamide] to `CC(c1n[nH]c(=O)c2cc(F)c(F)cc12)N(C)C(=O)c1ccc2ncsc2c1` (single isomer, unassigned) [Compound 87, N-(1-(6,7-difluoro-4-oxo-3,4-dihydrophthalazin-l-yl)ethyl)-N-methylbenzo[d]thiazole-6-carboxamide], the EC50 rises from 110 nM to 5570 nM (51-fold).

`CC(c1n[nH]c(=O)c2cc(F)c(F)cc12)N(C)C(=O)c1ccc2ccn(C)c2c1` (single isomer, unassigned) [Compound 104, N-(1-(6,7-difluoro-4-oxo-3,4-dihydrophthalazin-1-yl)ethyl)-N,1-dimethyl-1H-indole-6-carboxamide] and `CC(c1n[nH]c(=O)c2cc(F)c(F)cc12)N(C)C(=O)c1ccc2cn[nH]c2c1` (single isomer, unassigned) [Compound 112, N-(1-(6,7-difluoro-4-oxo-3,4-dihydrophthalazin-1-yl)ethyl)-N-methyl-1H-indazole-6-carboxamide] cannot be ordered by EC50: > 25000 nM for the first, > 25000 nM for the second.

Going from `CC(c1n[nH]c(=O)c2cc(F)c(F)cc12)N(C)C(=O)c1ccc2cn[nH]c2c1` (single isomer, unassigned) [Compound 113, N-(1-(6,7-difluoro-4-oxo-3,4-dihydrophthalazin-1-yl)ethyl)-N-methyl-1H-indazole-6-carboxamide] to `CC(c1n[nH]c(=O)c2cc(F)c(F)cc12)N(C)C(=O)c1ccc2ccn(C)c2c1` (single isomer, unassigned) [Compound 105, N-(1-(6,7-difluoro-4-oxo-3,4-dihydrophthalazin-1-yl)ethyl)-N,1-dimethyl-1H-indole-6-carboxamide], the EC50 falls from 2490 nM to 1000 nM (2.5-fold). The second is the more potent here.

Same assay, conditions: Hepatitis B virus, HepDE19, 168 h, HepDE19 cells, 7 day incubation, rcDNA measured by Quantigene 2.0 bDNA assay; top concentration 25 µM; read-out: DE-19bDNA EC50

First: CC(c1n[nH]c(=O)c2cc(Cl)ccc12)N(CCCO)C(=O)Nc1ccc(F)c(Cl)c1 (racemic) [Compound 13, 3-(3-chloro-4-fluorophenyl)-1-(1-(6-chloro-4-oxo-3,4-dihydrophthalazin-1-yl)ethyl)-1-(3-hydroxypropyl)urea]
Second: CC(c1n[nH]c(=O)c2cc(Cl)ccc12)N(CCCO)C(=O)Nc1ccc(F)cc1 (racemic) [Compound 14, 1-(1-(6-chloro-4-oxo-3,4-dihydrophthalazin-1-yl)ethyl)-3-(4-fluorophenyl)-1-(3-hydroxypropyl)urea]
The EC50 of the first is 5-fold lower: 22 nM for the first, 110 nM for the second.

Going from `CC(C)CN(C(=O)Nc1ccc(F)cc1)C(C)c1nn(C)c(=O)c2cc(F)c(F)cc12` (racemic) [Compound 24, 1-(1-(6,7-difluoro-3-methyl-4-oxo-3,4-dihydrophthalazin-1-yl)ethyl)-3-(4-fluorophenyl)-1-isobutylurea] to `CC(c1nn(C)c(=O)c2cc(F)c(F)cc12)N(CCCO)C(=O)Nc1ccc(F)cc1` (racemic) [Compound 26, 1-(1-(6,7-difluoro-3-methyl-4-oxo-3,4-dihydrophthalazin-1-yl)ethyl)-3-(4-fluorophenyl)-1-(3-hydroxypropyl)urea], the EC50 rises from 7 nM to 31 nM (4.4-fold).

`CC(c1n[nH]c(=O)c2cc(F)c(F)cc12)N(C)C(=O)c1cc2cc(F)c(F)cc2[nH]1` (racemic) [Compound 50, N-(1-(6,7-difluoro-4-oxo-3,4-dihydrophthalazin-1-yl)ethyl)-5,6-difluoro-N-methyl-1H-indole-2-carboxamide] and `CC(c1n[nH]c(=O)c2cc(F)c(F)cc12)N(C)C(=O)c1cc2c(F)cc(F)cc2[nH]1` (racemic) [Compound 60, N-(1-(6,7-difluoro-4-oxo-3,4-dihydrophthalazin-1-yl)ethyl)-4,6-difluoro-N-methyl-1H-indole-2-carboxamide] are within 1.5-fold of each other in EC50: 40 nM for the first, 50 nM for the second.

Compared with `CC(C)CN(C(=O)Nc1ccc(F)cc1)C(C)c1n[nH]c(=O)c2cc(Cl)ccc12` (racemic) [Compound 11, 1-(1-(6-chloro-4-oxo-3,4-dihydrophthalazin-1-yl)ethyl)-3-(4-fluorophenyl)-1-isobutylurea], `CC(c1n[nH]c(=O)c2cc(F)c(F)cc12)N(C)C(=O)c1ccc(F)c(Cl)c1` (racemic) [Compound 68, 3-chloro-N-(1-(6,7-difluoro-4-oxo-3,4-dihydrophthalazin-1-yl)ethyl)-4-fluoro-N-methylbenzamide] is 13-fold higher in EC50: 40 nM for the first, 520 nM for the second.

Compared with `CC(c1n[nH]c(=O)c2cc(F)c(F)cc12)N(C)C(=O)c1cc2c(F)cccn2c1` (racemic) [Compound 77, N-(1-(6,7-difluoro-4-oxo-3,4-dihydrophthalazin-1-yl)ethyl)-8-fluoro-N-methylindolizine-2-carboxamide], `CC(c1n[nH]c(=O)c2cc(F)c(F)cc12)N(C)C(=O)c1ccc(Cl)c(F)c1` (racemic) [Compound 64, 4-chloro-N-(1-(6,7-difluoro-4-oxo-3,4-dihydrophthalazin-1-yl)ethyl)-3-fluoro-N-methylbenzamide] is 60-fold lower in EC50: 8380 nM for the first, 140 nM for the second.

Going from `CC(c1n[nH]c(=O)c2cc(F)c(F)cc12)N(C)C(=O)c1cc(F)c(F)c(F)c1` (racemic) [Compound 67, N-(1-(6,7-difluoro-4-oxo-3,4-dihydrophthalazin-1-yl)ethyl)-3,4,5-trifluoro-N-methylbenzamide] to `CC(c1n[nH]c(=O)c2cc(F)c(F)cc12)N(C)C(=O)c1cc2ccc(F)cc2[nH]1` (racemic) [Compound 52, N-(1-(6,7-difluoro-4-oxo-3,4-dihydrophthalazin-1-yl)ethyl)-6-fluoro-N-methyl-1H-indole-2-carboxamide], the EC50 falls from 740 nM to 43 nM (17-fold). The second is the more potent here.

Same assay, conditions: Hepatitis B virus, HepDE19, 168 h, read-out: DE-19bDNA EC50

Compared with `CC(C)CN(C(=O)Nc1ccccc1)C(C)c1nn(C)c(=O)c2cc(F)c(F)cc12` (racemic) [Compound 34, 1-(1-(6,7-difluoro-3-methyl-4-oxo-3,4-dihydrophthalazin-1-yl)ethyl)-1-isobutyl-3-phenylurea], `CC(C)CN(C(=O)Nc1ccccc1)C(C)c1n[nH]c(=O)c2cc(F)c(F)cc12` (single isomer, unassigned) [Compound 39, 1-(1-(6,7-difluoro-4-oxo-3,4-dihydrophthalazin-1-yl)ethyl)-1-isobutyl-3-phenylurea] is 370-fold higher in EC50: 10 nM for the first, 3700 nM for the second.

Going from `C[C@H](c1n[nH]c(=O)c2cc(F)c(F)cc12)N(C)C(=O)Nc1ccc(F)c(Cl)c1` (single isomer, unassigned) [Compound 32] to `CC(c1n[nH]c(=O)c2cc(F)c(F)cc12)N(C)C(=O)c1ccc(Cl)cc1` (racemic) [Compound 69, 4-chloro-N-(1-(6,7-difluoro-4-oxo-3,4-dihydrophthalazin-1-yl)ethyl)-N-methylbenzamide], the EC50 rises from 21 nM to 200 nM (9.5-fold). The first is the more potent here.

`C[C@@H](c1nn(C)c(=O)c2cc(F)c(F)cc12)N(C)C(=O)Nc1ccc(F)cc1` [Compound 38, (S)(1-(6,7-difluoro-3-methyl-4-oxo-3,4-dihydrophthalazinyl)ethyl)-3-(4-fluorophenyl)methylurea] and `CC(C)CN(C(=O)NC1CCCC1)C(C)c1nn(C)c(=O)c2cc(F)c(F)cc12` (racemic) [Compound 35, 3-cyclopentyl-1-(1-(6,7-difluoro-3-methyl-4-oxo-3,4-dihydrophthalazin-1-yl)ethyl)-1-isobutylurea] are within 1.5-fold of each other in EC50: 8200 nM for the first, 6900 nM for the second.

`CC(c1n[nH]c(=O)c2cc(F)c(F)cc12)N(C)C(=O)c1cc2ccccn2c1` (racemic) [Compound 59, N-(1-(6,7-difluoro-4-oxo-3,4-dihydrophthalazin-1-yl)ethyl)-N-methylindolizine-2-carboxamide] and `C[C@H](c1n[nH]c(=O)c2cc(F)c(F)cc12)N(C)C(=O)c1cc2c([nH]1)CCCC2` [Compound 58, (R)-N-(1-(6,7-difluoro-4-oxo-3,4-dihydrophthalazin-1-yl)ethyl)-N-methyl-4,5,6,7-tetrahydro-1H-indole-2-carboxamide] are within 1.5-fold of each other in EC50: 130 nM for the first, 120 nM for the second.
